Reference: patent US9802957B2, “Processes of preparing a JAK1 inhibitor and new forms thereto” (Incyte Corporation, priority 2014, dated 2017)

What was measured:
Humidity Chamber Study A = type: physicochemical; conditions: 40° C., 75% relative humidity, 5 days
Protocol: Temperature: 40° C.; Relative humidity: 75%; Time: 5 days.
The compound of Example 9 was placed in a humidity chamber set at 40° C. and 75% relative humidity for 5 days.

Humidity Chamber Study B = type: physicochemical; conditions: 30° C., 90% relative humidity, 7 days
Protocol: Temperature: 30° C.; Relative humidity: 90%; Time: 7 days.
The compound of Example 9 was placed in a humidity chamber set at 30° C. and 90% relative humidity (RH) for 7 days. […] The XRPD patterns of the 30° C./90% RH sample corresponded to the hydrate form obtained from an aqueous suspension of the anhydrous crystalline free base drug substance.

[1] = Dynamic Vapor Sorption (DVS) study; type: physicochemical
Protocol: Some of the compounds prepared were analyzed using Dynamic Vapor Sorption (DVS). Typical DVS conditions are as follows: SGA-100 Symmetric Vapor Sorption Analyzer from VTI Corporation. The moisture uptake profile was completed in four cycles in 10% relative humidity (RH) increments with the first adsorption from 25% to 95% RH, followed by desorption in 10% increments from 95% to 5% RH. The equilibration criteria were 0.0050 wt % in 5 minutes with a maximum equilibration time of 180 minutes; Data logging interval: 2.00 min or 0.0100 wt %. All adsorption and desorption were performed at room temperature (25° C.). No pre-drying step was applied.
A Dynamic Vapor Sorption (DVS) study was conducted on the compound of Example 9 to monitor the hydroscopicity, hydrate formation and dehydration, as well as solid form transformation. The moisture uptake profile was completed in four cycles in 10% relative humidity (RH) increments with the first adsorption from 25% to 95% RH, followed by desorption in 10% increments from 95% to 5% RH. The equilibration criteria were as follows: 0.0050 wt % in 5 minutes with a maximum equilibration time of 180 minutes. All adsorption and desorption were performed at room temperature (25° C.). No pre-drying step was applied for the sample.

[2] = target: T1, human JAK1 (a.a. 837-1142) (Homo sapiens, UniProt P23458); assay: In vitro JAK kinase assay (HTRF), JAK1; type: biochemical; conditions: 1 mM ATP
T1 construct: The catalytic domains of human JAK1 (a.a. 837-1142); made in house; host or cells: insect cells (baculovirus)
T1 sequence (P23458 849-1154): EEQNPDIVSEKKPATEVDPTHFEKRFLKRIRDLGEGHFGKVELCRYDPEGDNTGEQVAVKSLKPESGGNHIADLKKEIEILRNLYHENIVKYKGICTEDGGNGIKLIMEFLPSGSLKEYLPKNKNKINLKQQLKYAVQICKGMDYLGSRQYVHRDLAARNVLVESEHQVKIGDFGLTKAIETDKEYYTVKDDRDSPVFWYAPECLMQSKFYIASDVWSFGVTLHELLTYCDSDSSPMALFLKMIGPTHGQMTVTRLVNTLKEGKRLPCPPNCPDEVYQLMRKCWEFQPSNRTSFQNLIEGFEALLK
Protocol: (§1) Compounds herein were tested for inhibitory activity of JAK targets according to the following in vitro assay described in Park et al., Analytical Biochemistry 1999, 269, 94-104. The catalytic domains of human JAK1 (a.a. 837-1142), JAK2 (a.a. 828-1132) and JAK3 (a.a. 781-1124) were expressed using baculovirus in insect cells and purified. The catalytic activity of JAK1, JAK2 or JAK3 was assayed by measuring the phosphorylation of a biotinylated peptide. The phosphorylated peptide was detected by homogenous time resolved fluorescence (HTRF). IC50s of compounds were measured for each kinase in the 40 μL, reactions that contain the enzyme, ATP and 500 nM peptide in 50 mM Tris (pH 7.8) buffer with 100 mM NaCl, 5 mM DTT, and 0.1 mg/mL (0.01%) BSA. For the 1 mM IC50 measurements, ATP concentration in the reactions was 1 mM. Reactions were carried out at room temperature for 1 hour and then stopped with 20 μL 45 mM EDTA, 300 nM SA-APC, 6 nM Eu-Py20 in assay buffer (Perkin Elmer, Boston, Mass.). Binding to the Europium labeled antibody took place for 40 minutes and HTRF signal was measured on a PHERAi star plate reader (BMG, Cary, N.C.).

[3] = tested on: human JAK1 (a.a. 837-1142); assay: In vitro JAK kinase assay (HTRF), JAK1; type: biochemical
Protocol: as §1

[4] = target: T2, human JAK2 (a.a. 828-1132) (Homo sapiens, UniProt O60674); assay: In vitro JAK kinase assay (HTRF), JAK2; type: biochemical; conditions: 1 mM ATP
T2 construct: JAK2 (a.a. 828-1132); made in house; host or cells: insect cells (baculovirus)
T2 sequence (O60674 828-1132): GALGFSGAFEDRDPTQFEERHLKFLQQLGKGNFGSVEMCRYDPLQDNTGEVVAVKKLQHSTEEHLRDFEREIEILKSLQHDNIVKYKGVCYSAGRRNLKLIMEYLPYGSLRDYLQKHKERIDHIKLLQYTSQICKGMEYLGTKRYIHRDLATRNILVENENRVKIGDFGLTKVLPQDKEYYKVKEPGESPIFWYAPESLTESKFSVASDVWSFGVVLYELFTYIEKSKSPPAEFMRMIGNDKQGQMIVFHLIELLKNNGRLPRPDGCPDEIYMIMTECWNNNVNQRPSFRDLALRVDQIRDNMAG
Protocol: as §1

SMILES: C[C@@H](O)c1nc2cnc3ccsc3c2n1[C@H]1CC[C@H](CC#N)OC1 [Example 9, 2-((2R,5S)-5-(2-((R)-1-hydroxyethyl)-1H-imidazo[4,5-d]thieno[3,2-b]pyridin-1-yl)tetrahydro-2H-pyran-2-yl)acetonitrile]
- Solid form by XRPD after humidity chamber (Humidity Chamber Study A): converted to the crystalline hydrate form
- Water content by KF after humidity chamber (Humidity Chamber Study A): 4.6%
- Weight loss observed by TGA after humidity chamber (Humidity Chamber Study A): 5.01%
- Solid form by XRPD after humidity chamber (Humidity Chamber Study B): converted to the crystalline hydrate form
- Water content by KF after humidity chamber (Humidity Chamber Study B): 4.72%
- Weight loss observed by TGA after humidity chamber (Humidity Chamber Study B): 5.05%
- Water absorption of the anhydrous form ([1]; DVS, 25° C., four cycles, 5% to 95% RH): slow below 85% RH and fast above 85% RH
- Solid form after DVS cycle 4 ([1]; DVS, 25° C., XRPD before and after): fully converted to the hydrate form
- Behaviour under ambient storage conditions ([1]; ambient storage): slowly absorb water and convert to hydrate form

SMILES: C[C@@H](O)c1nc2cnc3ccsc3c2n1[C@H]1CC[C@H](CC#N)OC1 [Example 10, 2-((2R,5S)-5-(2-((R)-1-hydroxyethyl)-1H-imidazo[4,5-d]thieno[3,2-b]pyridin-1-yl)tetrahydro-2H-pyran-2-yl)acetonitrile monohydrate]
- Dehydration process from the hydrate to the anhydrous form ([1]; DVS desorption, 25° C.): very slow, even at 5% RH
- Physical stability to humidity ([1]; DVS, 25° C.): physically stable in a wide range of humidity conditions

SMILES: C[C@@H](O)c1nc2cnc3ccsc3c2n1[C@H]1CC[C@H](CC#N)OC1 [Formula Ia, 2-((2R,5S)-5-(2-((R)-1-hydroxyethyl)-1H-imidazo[4,5-d]thieno[3,2-b]pyridin-1-yl)tetrahydro-2H-pyran-2-yl)acetonitrile]
- IC50 [2]: ≤ 0.1 µM
- JAK2/JAK1 ratio ([3]; 1 mM ATP, ratio of IC50s): > 10
- JAK2/JAK1 IC50 ratio ([3]; general statement of selectivity for JAK1 over JAK2): > 10
- IC50 [4]: ≤ 1 µM
